Measurements: patent publication US8399521B2, “Methods of treating skin with aromatic skin-active ingredients” (Mary Kay Inc., priority 2008, dated 2013)

Tests used:
[1] = system: TNF-α; experiment: TNF-α secretion by PMA-treated human keratinocytes (ELISA); assay type: cell-based; details: 0.01% test compound; PMA 10 ng/ml, 6 hours; % change in secreted TNF-α, negative = reduction; Table 2
Source text: Tumor necrosis factor alpha (TNF-α) assay: The prototype ligand of the TNF superfamily, TNF-α, is a pleiotropic cytokine that plays a central role in inflammation. Increase in its expression is associated with an up regulation in pro-inflammatory activity. This bioassay analyzes the effect of compounds on the production of TNF-α by human epidermal keratinocytes. The endpoint of this assay is a spectrophotometric measurement that reflects the presence of TNF-α and cellular viability. The assay employs the quantitative sandwich enzyme immunoassay technique whereby a monoclonal antibody specific for TNF-α has been pre-coated onto a microplate. Standards and samples are pipetted into the wells and any TNF-α present is bound by the immobilized antibody. After washing away any unbound substances, an enzyme-linked polyclonal antibody specific for TNF-α is added to the wells. Following a wash to remove any unbound antibody-enzyme reagent, a substrate solution is added to the wells and color develops in proportion to the amount of TNF-α bound in the initial step using a microplate reader for detection at 450 nm. The color development is stopped and the intensity of the color is measured.
Subconfluent normal human adult keratinocytes (Cascade Biologics) cultivated in EpiLife standard growth medium (Cascade Biologics) at 37° C. in 5% CO2, were treated with PMA (10 ng/ml, Sigma Chemical, #P1585-1MG) and test compounds for 6 hours. […] Following incubation, cell culture medium was collected and the amount of TNF-a secretion quantified using a sanwhich enzyme linked immuno-sorbant assay (ELISA) from R&D Systems ([…]). Following all manufacturer instructions, medium from treated cells was incubated with antibodies directed against human TNF-α which were bound to microtiter plates. The amount of TNF-α protein was quantified by comparison of optical density units to standard concentrations of purified TNF-α protein. Values are calculated as % change in the amount of TNF-α protein secreted between control and treated samples. […]

[2] = target: T1, 15-lipoxygenase (Glycine max, UniProt P08170); experiment: Lipoxygenase (LO) inhibition assay; assay type: biochemical; details: 0.1% test compound; negative = inhibition vs non-treated control; Table 2
T1 construct: purchased Cayman Chemical 760700
T1 sequence (P08170 1-839): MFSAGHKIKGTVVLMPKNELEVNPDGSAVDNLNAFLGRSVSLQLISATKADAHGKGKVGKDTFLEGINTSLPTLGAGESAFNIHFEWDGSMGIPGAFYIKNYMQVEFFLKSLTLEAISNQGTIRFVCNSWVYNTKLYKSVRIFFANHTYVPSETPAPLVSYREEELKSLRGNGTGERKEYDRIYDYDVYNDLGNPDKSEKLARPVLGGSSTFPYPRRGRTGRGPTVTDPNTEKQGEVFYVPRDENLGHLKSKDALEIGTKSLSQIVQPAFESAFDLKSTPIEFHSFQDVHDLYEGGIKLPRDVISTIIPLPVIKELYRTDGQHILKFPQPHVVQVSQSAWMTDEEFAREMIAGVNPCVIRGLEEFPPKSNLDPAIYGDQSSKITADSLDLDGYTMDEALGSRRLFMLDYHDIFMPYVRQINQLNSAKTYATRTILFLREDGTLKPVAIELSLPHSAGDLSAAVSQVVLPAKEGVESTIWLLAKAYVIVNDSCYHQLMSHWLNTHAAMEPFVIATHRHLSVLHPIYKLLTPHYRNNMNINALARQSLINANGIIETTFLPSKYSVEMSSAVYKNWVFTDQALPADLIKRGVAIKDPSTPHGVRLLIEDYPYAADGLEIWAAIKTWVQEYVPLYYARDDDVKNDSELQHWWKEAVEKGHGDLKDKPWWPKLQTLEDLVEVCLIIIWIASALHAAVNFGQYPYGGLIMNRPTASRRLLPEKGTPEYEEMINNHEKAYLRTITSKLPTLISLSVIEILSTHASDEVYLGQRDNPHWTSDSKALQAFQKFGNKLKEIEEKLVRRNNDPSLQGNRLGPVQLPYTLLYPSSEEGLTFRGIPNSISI
Protocol: Lipoxygenase (LO) assay: An in vitro lipoxygenase (LO) inhibition assay. LOs are non-heme iron-containing dioxygenases that catalyze the addition of molecular oxygen to fatty acids. Linoleate and arachidonate are the main substrates for LOs in plants and animals. […] This assay provides an accurate and convenient method for screening lipoxygenase inhibitors by measuring the hydroperoxides generated from the incubation of a lipoxygenase (5-, 12-, or 15-LO) with arachidonic acid.
Following incubation, arachidonic acid was added to initiate the reaction and mixtures incubated for an additional 10 min at room temperature. Colorimetric substrate was added to terminate catalysis and color progression was evaluated by fluorescence plate reading at 490 nm. The percent inhibition of lipoxyganse activity was calculated compared to non-treated controls to determine the ability of test compounds to inhibit the activity of purified enzyme.

Molecule: 3-(4-ethylphenyl)-2,2-dimethylpropanal and 3-(2-ethylphenyl)-2,2-dimethylpropanal [Floralozone]
- TNF-α Inhibition (0.01%) [1]: −33.20%

Molecule: CCCCCCCCC(C)C=O (stereo not shown) [Aldehyde C-11 MOA, 2-methyldecanal]
- TNF-α Inhibition (0.01%) [1]: −38.68%

Molecule: CCCCCC/C=C/C(=O)OC [Neofolione, methyl non-2-enoate]
- LO Inhibition (0.1%) [2]: −27.46%
- TNF-α Inhibition (0.01%) [1]: −53.90%
